Measurements from US10961202B2, “Bis-benzimidazole compounds and methods of using the same” (THE SCRIPPS RESEARCH INSTITUTE, priority 2017, dated 2021).
pIC50: −log10 of the molar value.

What was measured:
r(CUG)12-MBNL1 complex = assay: Inhibition of the r(CUG)12-MBNL1 complex measured by TR-FRET; assay type: biochemical; conditions: 80 nM RNA, 60 nM MBNL1-His6
[1] = system: MBNL1 exon 5 inclusion in DM1 myotubes; assay: Myotube splicing rescue assay (MBNL1 exon 5 inclusion); assay type: cell-based, human; conditions: 48-hour incubation

Row | Structure (SMILES) | pIC50 (r(CUG)12-MBNL1 complex; Table M) | MBNL1 % splicing rescue at 10 μM [1] [%] | pIC50 (r(CUG)12-MBNL1 complex; Table L) | MBNL1 % splicing rescue at 5 μM [1] [%] | MBNL1 % splicing rescue at 1 μM [1] [%]
1 | NCCN1CCN(CCNC(=O)c2ccc3nc(-c4ccc(-c5nc6ccc(C(=O)NCCN7CCCCC7)cc6[nH]5)cc4)[nH]c3c2)CC1 [Compound 185, N-(2-(4-(2-aminoethyl)piperazin-1-yl)ethyl)-2-(4-(6-((2-(piperidin-1-yl)ethyl)carbamoyl)-1H-benzo[d]imidazol-2-yl)phenyl)-1H-benzo[d]imidazole-6-carboxamide] | 5.09 | 39.2 | – | – | –
2 | CN(C)CCNC(=O)c1ccc2nc(-c3ccc(-c4nc5ccc(NC6=NCCN6)cc5[nH]4)cc3)[nH]c2c1 [Compound 149] | – | −1.1 | 5.21 | – | –
3 | COc1cc(-c2nc3ccc(C(=O)NCCCN(C)C)cc3[nH]2)c(OC)cc1-c1nc2cc(OCCCN(C)C)ccc2[nH]1 [Compound 299] | 4.99 | −34.9 | – | – | –
4 | C#CCOc1cc(-c2nc3ccc(OCCCN(C)C)cc3[nH]2)ccc1-c1nc2ccc(OCCCN(C)C)cc2[nH]1 [Compound 255, 3,3′-((2,2′-(2-(prop-2-yn-1-yloxy)-1,4-phenylene)bis(1H-benzo[d]imidazole-6,2-diyl))bis(oxy))bis(N,N-dimethylpropan-1-amine)] | 5.43 | 89.2 | – | – | –
5 | CN(C)CCCOc1ccc(-c2nc3cc(-c4ccc5[nH]c(-c6ccc(C(=O)NCCCn7cc(COCCOCCOCCOCCN(C)C(=O)c8ccc(-c9nc%10cc(-c%11ccc%12[nH]c(-c%13ccc(C(=O)NCCN(C)C)cc%13)nc%12c%11)ccc%10[nH]9)cc8)nn7)cc6)nc5c4)ccc3[nH]2)cc1 [Compound 459] | 4.56 | – | – | −2.6 | –
6 | CN(C)CCCOc1ccc2nc(-c3cc(O)c(-c4nc5ccc(OCCCN(C)C)cc5[nH]4)cc3O)[nH]c2c1 [Compound 278] | 4.42 | 48.2 | – | – | 79.7
7 | C[C@@H](NC(=O)CNCCCn1cc(CCCCN(C)CCNC(=O)c2ccc(-c3nc4cc(-c5ccc6[nH]c(-c7ccc(OCCCN(C)C)cc7)nc6c5)ccc4[nH]3)cc2)nn1)C(=O)N[C@H](C)C(=O)N[C@H](C)C(=O)N[C@H](C)C(=O)N(CCCn1cc(CCCCN(C)CCNC(=O)c2ccc(-c3nc4cc(-c5ccc6[nH]c(-c7ccc(OCCCN(C)C)cc7)nc6c5)ccc4[nH]3)cc2)nn1)CC(N)=O [Compound 461] | 5.60 | −35.5 | – | – | –
8 | CN(C)CCCOc1ccc2[nH]c(-c3ccc(-c4nc5cc(OCCCN(C)C)ccc5[nH]4)c4c3OCCO4)nc2c1 [Compound 316] | 4.68 | 87.1 | – | – | –
9 | C#CCCCCN(C)CCNC(=O)c1ccc(-c2nc3cc(-c4ccc5[nH]c(-c6ccc(C(=O)NCCN(C)C)cc6)nc5c4)ccc3[nH]2)cc1 [Compound 401, N-(2-(dimethylamino)ethyl)-4-(2′-(4-((2-(hex-5-yn-1-yl(methyl)amino)ethyl)carbamoyl)phenyl)-1H,1′H-[5,5′-bibenzo[d]imidazol]-2-yl)benzamide] | 4.97 | – | – | −11.3 | –
10 | COc1cc(-c2nc3ccc(OCCCN(C)C)cc3[nH]2)c(OC)cc1-c1nc2ccc(OCCCN(C)C)cc2[nH]1 [Compound 290] | 4.96 | 97.2 | – | – | –
11 | N=C(N)NCCC(=O)Nc1ccc2nc(-c3ccc(-c4nc5ccc(NC(=O)CCNC(=N)N)cc5[nH]4)cc3)[nH]c2c1 [Compound 65] | – | – | 5.44 | – | 31.7
12 | CN(C)CCNC(=O)c1ccc(-c2nc3cc(-c4ccc5[nH]c(-c6ccc(SCCN(C)C)cc6)nc5c4)ccc3[nH]2)cc1 [Compound 384] | 4.99 | 93.9 | – | – | –
13 | NCCCOc1ccc2nc(-c3ccc(-c4nc5ccc(OCCCN)cc5[nH]4)cc3)[nH]c2c1 [Compound 201, 3,3′-((1,4-phenylenebis(1H-benzo[d]imidazole-2,6-diyl))bis(oxy))bis(propan-1-amine)] | 4.78 | −13.2 | – | – | –
14 | CN(C)CCCOc1cc2[nH]c(-c3ccc(-c4nc5cc(F)c(OCCCN(C)C)cc5[nH]4)c(F)c3)nc2cc1F [Compound 301, (3-[[2-(4-[6-[3-(dimethylamino)propoxy]-5-fluoro-1H-1,3-benzodiazol-2-yl]-3-fluorophenyl)-5-fluoro-1H-1,3-benzodiazol-6-yl]oxy]propyl)dimethylamine] | 5.28 | 19.4 | – | – | –
15 | CN1CCC(CNC(=O)c2ccc(-c3nc4cc(-c5ccc6[nH]c(-c7ccc(C(=O)NCC8CCN(C)CC8)cc7)nc6c5)ccc4[nH]3)cc2)CC1 [Compound 340] | 5.21 | −0.4 | – | – | −3.4
16 | CN1CCC(COc2ccc(-c3nc4cc(-c5ccc6[nH]c(-c7ccc(OCC8CCN(C)CC8)cc7)nc6c5)ccc4[nH]3)cc2)CC1 [Compound 336] | 5.10 | 77.0 | – | – | 59.0
17 | CN(C)CCSc1ccc2nc(-c3ccc(-c4nc5ccc(SCCN(C)C)cc5[nH]4)cc3)[nH]c2c1 [Compound 59, 2,2′-((2,2′-(1,4-phenylene)bis(1H-benzo[d]imidazole-6,2-diyl))bis(sulfanediyl))bis(N,N-dimethylethanamine)] | – | −17.6 | 4.97 | – | –
18 | CN(C)CCCSc1ccc2nc(-c3ccc(-c4nc5ccc(SCCCN(C)C)cc5[nH]4)c4c3OCO4)[nH]c2c1 [Compound 306] | 4.92 | 11.7 | – | – | –
19 | CN(C)CCCCCCOc1ccc2nc(-c3ccc(-c4nc5ccc(OCCCCCCN(C)C)cc5[nH]4)cc3)[nH]c2c1 [Compound 212] | 5.28 | 77.0 | – | – | –
20 | CCN(CC)CCOc1ccc(-c2nc3cc(-c4ccc5[nH]c(-c6ccc(OCCN(CC)CC)cc6)nc5c4)ccc3[nH]2)cc1 [Compound 353] | 4.87 | – | – | – | 7.5
21 | CN(C)CCCOc1ccc2nc(-c3ccc(-c4nc5ccc(OCCCN(C)C)cc5[nH]4)c(OCCN=[N+]=[N-])c3)[nH]c2c1 [Compound 265, 3,3′-((2,2′-(2-(2-azidoethoxy)-1,4-phenylene)bis(1H-benzo[d]imidazole-6,2-diyl))bis(oxy))bis(N,N-dimethylpropan-1-amine)] | 4.78 | 84.3 | – | – | –
22 | CN(C)CCOC(=O)c1ccc2nc(-c3ccc(-c4nc5ccc(C(=O)OCCN(C)C)cc5[nH]4)c(F)c3)[nH]c2c1 [Compound 270, bis(2-(dimethylamino)ethyl) 2,2′-(2-fluoro-1,4-phenylene)bis(1H-benzo[d]imidazole-6-carboxylate)] | 5.24 | −19.5 | – | – | –
23 | c1cc(-c2nc3cc(-c4ccc5[nH]c(-c6ccc(OCCN7CCCC7)cc6)nc5c4)ccc3[nH]2)ccc1OCCN1CCCC1 [Compound 347] | 4.87 | 98.1 | – | – | 78.9
24 | C#CCCCCN(C)CCNC(=O)CCCOc1ccc2[nH]c(-c3ccc(-c4nc5cc(OCCCN(C)C)ccc5[nH]4)cc3)nc2c1 [Compound 320] | 4.78 | 88.2 | – | – | –
25 | CN(C)CCCOc1ccc2nc(-c3ccc(-c4nc5ccc(OCCCC(=O)OC(C)(C)C)cc5[nH]4)cc3)[nH]c2c1 [Compound 252, tert-butyl 4-((2-(4-(5-(3-(dimethylamino)propoxy)-1H-benzo[d]imidazol-2-yl)phenyl)-1H-benzo[d]imidazol-5-yl)oxy)butanoate] | 4.72 | 13.0 | – | – | –
